Test results published in PubChem BioAssay AID330 (DTP/NCI, 2004).
Where “and” joins values, the source holds several entries; their conditions need not be identical. Identical values can stand only once. Toxic doses and inconclusive results are not listed. Rule for the calls: active = survival T/C of 150% or more; inactive = T/C below 125% in these data.

System: P388 leukemia ip, CD2F1 mice, survival T/C
Test: NCI In Vivo Anticancer Drug Screen. Data for tumor model P388 Leukemia (intraperitoneal) in CD2F1 (CDF1) mice
Details: endpoint: median survival time, higher = longer survival
Method in brief: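 Mice carrying the transplanted tumor received test compound or vehicle. Survival was recorded in each group, and the value is the treated-group measurement divided by that of the vehicle-treated control group.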

[1] = dose: 50.0 mg/kg/injection, schedule: Q01DX009 (ip), vehicle: saline
[2] = dose: 100.0 mg/kg/injection, schedule: Q01DX009 (ip), vehicle: saline
[3] = dose: 200.0 mg/kg/injection, schedule: Q01DX009 (ip), vehicle: saline
[4] = dose: 50.0 mg/kg/injection, schedule: Q01DX009 (ip), vehicle: Klucel (hydroxypropylcellulose) (HPC)
[5] = dose: 100.0 mg/kg/injection, schedule: Q01DX009 (ip), vehicle: Klucel (hydroxypropylcellulose) (HPC)
[6] = dose: 200.0 mg/kg/injection, schedule: Q01DX009 (ip), vehicle: Klucel (hydroxypropylcellulose) (HPC)
[7] = dose: 50.0 mg/kg/injection, schedule: Q01DX005 (ip), vehicle: saline with Tween-80
[8] = dose: 100.0 mg/kg/injection, schedule: Q01DX005 (ip), vehicle: saline with Tween-80
[9] = dose: 100.0 mg/kg/injection, schedule: Q01DX009 (ip), vehicle: saline with Tween-80
[10] = dose: 200.0 mg/kg/injection, schedule: Q01DX009 (ip), vehicle: saline with Tween-80
[11] = dose: 400.0 mg/kg/injection, schedule: Q01DX009 (ip), vehicle: saline with Tween-80
[12] = dose: 50.0 mg/kg/injection, schedule: Q01DX005 (ip), vehicle: saline
[13] = dose: 6.25 mg/kg/injection, schedule: Q01DX009 (ip), vehicle: saline with Tween-80
[14] = dose: 50.0 mg/kg/injection, schedule: Q01DX009 (ip), vehicle: saline with Tween-80
[15] = dose: 60.0 mg/kg/injection, schedule: Q01DX005 (ip), vehicle: saline with Tween-80
[16] = dose: 120.0 mg/kg/injection, schedule: Q01DX005 (ip), vehicle: saline with Tween-80
[17] = dose: 240.0 mg/kg/injection, schedule: Q01DX005 (ip), vehicle: saline with Tween-80
[18] = dose: 3.75 mg/kg/injection, schedule: Q01DX005 (ip), vehicle: saline
[19] = dose: 7.5 mg/kg/injection, schedule: Q01DX005 (ip), vehicle: saline

Measured: T/C

CNCS(=O)(=O)O
inactive: [1] 106 % of control | [2] 101 % of control | [3] 93 % of control

O=S(=O)(NCCSSCCNS(=O)(=O)c1ccc(F)cc1)c1ccc(F)cc1
inactive: [4] 95 % of control | [5] 90 % of control | [6] 89 % of control

CCOC(=O)C1=Nc2cccc3c(O)ccc1c23
inactive: [7] 113 % of control | [8] 109 % of control | dose: 200.0 mg/kg/injection, schedule: Q01DX005 (ip), vehicle: saline with Tween-80 111 % of control

O=C(CCl)C(c1ccc([N+](=O)[O-])cc1)c1ccc([N+](=O)[O-])cc1
inactive: [9] 100 % of control | [10] 95 % of control | [11] 118 % of control

CC(C)C(N)C(=O)NC(C(=O)NS(=O)(=O)c1ccc(N)cc1)C(C)C (centres undefined)
inactive: [12] 99 % of control | dose: 100.0 mg/kg/injection, schedule: Q01DX005 (ip), vehicle: saline 93 % of control | dose: 200.0 mg/kg/injection, schedule: Q01DX005 (ip), vehicle: saline 98 % of control

CC(COC(=O)c1cccc([N+](=O)[O-])c1C(=O)O)c1ccccc1 (centres undefined)
inactive: dose: 100.0 mg/kg/injection, schedule: Q04DX002 (ip), vehicle: saline with Tween-80 98 % of control | dose: 200.0 mg/kg/injection, schedule: Q04DX002 (ip), vehicle: saline with Tween-80 109 % of control | dose: 400.0 mg/kg/injection, schedule: Q04DX002 (ip), vehicle: saline with Tween-80 110 % of control

Cc1ccc(NC(=O)c2ccc([N+](=O)[O-])cc2)c(C)c1
inactive: [9] 100 % of control | [10] 100 % of control | [11] 110 % of control

CCOP(=O)(Cc1cc(=O)oc2cc(OC)ccc12)OCC
inactive: dose: 100.0 mg/kg/injection, schedule: Q01DX001 (ip), vehicle: saline 101 % of control | dose: 200.0 mg/kg/injection, schedule: Q01DX001 (ip), vehicle: saline 100 % of control

CC(C)=CCC1=CC(=O)C=CC1=O
inactive: [13] 98 % of control | dose: 12.5 mg/kg/injection, schedule: Q01DX009 (ip), vehicle: saline with Tween-80 99 % of control | dose: 25.0 mg/kg/injection, schedule: Q01DX009 (ip), vehicle: saline with Tween-80 107 % of control | [14] 114 % of control

CC(=O)OC1CCC2(C)C(C1)CC(OC(C)=O)C1C2CC(OC(C)=O)C2(C)C(C(C)CC(=O)C(=O)c3ccccc3)CCC12 (centres undefined)
inactive: [14] 103 % of control | [9] 94 % of control | [10] 98 % of control

CCOC(C)OCCCI (centres undefined)
inactive: [15] 105 % of control | [16] 101 % of control | [17] 105 % of control

CSc1nnc(CCC(=O)Nc2cc(Cl)ccc2Cl)o1
inactive: [15] 109 % of control | [16] 100 % of control | [17] 97 % of control

C=C(CN1CCOCC1)C(=O)c1ccccc1
inactive: dose: 1.89 mg/kg/injection, schedule: Q01DX005 (ip), vehicle: saline 105 % of control | [18] 112 % of control | [19] 100 % of control and 105 % of control

CCNC(=O)OCCN(CC)CC
inactive: [1] 103 % of control | [2] 103 % of control | [3] 104 % of control

O=C1C(Br)=C(Br)C(=O)C1(Br)Br
inactive: [13] 118 % of control | dose: 6.25 mg/kg/injection, schedule: Q04DX003 (ip), vehicle: saline with Tween-80 100 % of control | dose: 12.5 mg/kg/injection, schedule: Q04DX003 (ip), vehicle: saline with Tween-80 100 % of control | dose: 25.0 mg/kg/injection, schedule: Q04DX003 (ip), vehicle: saline with Tween-80 120 % of control

CCCCCCC(=O)CC(SCCN)c1ccccc1Cl (centres undefined)
inactive: [18] 100 % of control | [19] 96 % of control | dose: 15.0 mg/kg/injection, schedule: Q01DX005 (ip), vehicle: saline 97 % of control | dose: 30.0 mg/kg/injection, schedule: Q01DX005 (ip), vehicle: saline 99 % of control

CC(C)[C@@H]1CC[C@@H](C)C[C@H]1N
inactive: dose: 12.5 mg/kg/injection, schedule: Q01DX005 (ip), vehicle: saline 107 % of control | dose: 25.0 mg/kg/injection, schedule: Q01DX005 (ip), vehicle: saline 98 % of control | [7] 113 % of control | [12] 100 % of control

N#Cc1c(NC(=S)NC(=O)c2ccc(Cl)c(Cl)c2)sc(=S)c2c1CCCC2
inactive: [14] 108 % of control | [9] 96 % of control | [10] 92 % of control

COC1NC(=S)N(C(C)(C)C)C1(C)C (centres undefined)
inactive: dose: 12.5 mg/kg/injection, schedule: Q01DX009 (ip), vehicle: saline 99 % of control | dose: 25.0 mg/kg/injection, schedule: Q01DX009 (ip), vehicle: saline 100 % of control | [1] 107 % of control | dose: 50.0 mg/kg/injection, schedule: Q01DX009 (ip), vehicle: suspension in saline 97 % of control

CC12CCC(C3(C)CCC4CC3(O)C4)C(CO)C1CCC2=O (centres undefined)
inactive: dose: 7.5 mg/kg/injection, schedule: Q01DX005 (ip), vehicle: Klucel (hydroxypropylcellulose) (HPC) 96 % of control | dose: 15.0 mg/kg/injection, schedule: Q01DX005 (ip), vehicle: Klucel (hydroxypropylcellulose) (HPC) 103 % of control | dose: 30.0 mg/kg/injection, schedule: Q01DX005 (ip), vehicle: Klucel (hydroxypropylcellulose) (HPC) 98 % of control

CSC(=S)N/N=C/c1cccn1C
inactive: [14] 100 % of control | [9] 91 % of control | [10] 115 % of control

CCCCCCCCCC[N+]1(CC)CCCCCC1
inactive: dose: 3.12 mg/kg/injection, schedule: Q01DX009 (ip), vehicle: saline 90 % of control | dose: 6.25 mg/kg/injection, schedule: Q01DX009 (ip), vehicle: saline 98 % of control

COC(=O)c1ccc(SCCC(=O)CNc2nc(N)nc(N)c2[N+](=O)[O-])cc1
inactive: [4] 96 % of control | [5] 93 % of control | [6] 96 % of control

CCCCCCCCCCCCCCCCc1c(C(=O)OC)nc(N)[nH]c1=O
inactive: dose: 3.75 mg/kg/injection, schedule: Q01DX005 (ip), vehicle: saline with Tween-80 99 % of control | dose: 7.5 mg/kg/injection, schedule: Q01DX005 (ip), vehicle: saline with Tween-80 100 % of control | dose: 15.0 mg/kg/injection, schedule: Q01DX005 (ip), vehicle: saline with Tween-80 103 % of control

CCCCCCCCCC(C)CCCCC (centres undefined)
inactive: dose: 25.0 mg/kg/injection, schedule: Q01DX001 (ip), vehicle: saline with Tween-80 90 % of control | dose: 50.0 mg/kg/injection, schedule: Q01DX001 (ip), vehicle: saline with Tween-80 100 % of control | dose: 100.0 mg/kg/injection, schedule: Q01DX001 (ip), vehicle: saline with Tween-80 100 % of control

O=[N+]([O-])C1(Cl)CCC(Cl)([N+](=O)[O-])CC1 (centres undefined)
inactive: dose: 100.0 mg/kg/injection, schedule: Q01DX001 (ip), vehicle: Klucel (hydroxypropylcellulose) (HPC) 100 % of control | dose: 200.0 mg/kg/injection, schedule: Q01DX001 (ip), vehicle: Klucel (hydroxypropylcellulose) (HPC) 104 % of control

O=C(c1ccccc1)C1CCCN(CCc2ccccc2)C1 (centres undefined)
inactive: [7] 108 % of control | [8] 109 % of control

c1ccc2c(c1)Cc1nc3ccccc3nc1-2
inactive: [9] 100 % of control | [10] 95 % of control | [11] 100 % of control

COC(=O)C1=CO[C@@H](O)[C@@H]2C(C)OC(=O)C[C@H]12 (some centres undefined)
inactive: dose: 60.0 mg/kg/injection, schedule: Q01DX005 (ip), vehicle: saline 104 % of control | dose: 120.0 mg/kg/injection, schedule: Q01DX005 (ip), vehicle: saline 104 % of control | dose: 240.0 mg/kg/injection, schedule: Q01DX005 (ip), vehicle: saline 109 % of control

[O-]/[N+]1=[N+](\[O-])c2ccccc2CCCc2ccccc21
inactive: [15] 102 % of control | [16] 100 % of control | [17] 88 % of control

CCCC(C)/C=C(\C)C(O)C(C)/C=C/CCC(O)C(C)C(O)C(C)C(O)C(C)C1OC(C(C)C(=O)OC)CCC1C (centres undefined)
inactive: dose: 12.5 mg/kg/injection, schedule: Q01DX005 (ip), vehicle: dimethyl formamide 111 % of control | dose: 25.0 mg/kg/injection, schedule: Q01DX005 (ip), vehicle: dimethyl formamide 108 % of control | dose: 50.0 mg/kg/injection, schedule: Q01DX005 (ip), vehicle: dimethyl formamide 102 % of control
